{"source": "paper PMC13371181", "about": "“A paracrine-to-autocrine shunt of GREM1 fuels colorectal cancer metastasis via ACVR1C” (Molecular Cancer, 2026)", "key": {"HCT116 and SW480 cells": {"test_system": "HCT116 and SW480 cells", "experiment": "Transwell invasion assay", "assay_type": "cell-based, human", "details": "HCT116 and SW480, Matrigel transwell, 48 h; n = 3 independent experiments", "method": "(§1) To investigate the effect of secreted GREM1 on CRC cells, an in vitro GREM1 secretion system was established using HEK293 cells. Stably GREM1-expressing cells (pcDNA3.1-GREM1) and empty-vector transfected cells (pcDNA3.1) were cultured in DMEM/F12 medium with 10% FBS until 40% confluence. After complete removal of the normal culture medium, HEK293-GREM1 and HEK293-Vec cells were continuously cultured in DMEM/F12 medium without FBS for 5 days before medium collection. GREM1 or Vector conditioned medium (GREM1-CM/Vec-CM) was then centrifuged at 1000 rpm for 30 min and the supernatant was collected for further study.\nCells (1 × 10^5) were seeded in serum-free medium in the Matrigel-coated (Corning, 354480) transwell chambers (24-well insert, 8-µm pore size; BD Biosciences) for invasion experiments. The lower chamber was filled with RPMI1640 or DMEM containing 20% FBS. The migration of HCT116 and SW480 cells was measured in three random visual fields and quantified by microscopy after 48 h of incubation, followed by staining with DAPI or crystal violet. The invasive capacity of the cells was assessed using ImageJ software for quantification."}, "SNAI1 promoter": {"test_system": "SNAI1 promoter", "experiment": "ChIP–qPCR, SMAD2/3/4 binding to SNAI1 promoter", "assay_type": "cell-based, human", "details": "SW480 cells, SB505124 10 µM, 24 h, n = 3 independent experiments", "method": "(§2) SW480 cells were starved in DMEM with 1% FCS overnight before treatment with vehicle, 10 µM SB505124 for 24 h. Cells were fixed in 1% paraformaldehyde for 10 min at RT for DNA-protein cross-linking, followed by quenching with glycine. Cross-linking chromatin was prepared using the SimpleChIP® Enzymatic Chromatin IP Kit (CST, 9002) according to the manufacturer’s instructions. For immunoprecipitation, 10 µg chromatin was incubated with 10 µL anti-histone H3 rabbit IgG (CST, 14269, positive control), 2 µL normal Rabbit IgG (CST, 2729) or 5 µL anti-SMAD2/3 rabbit IgG (CST, 8685) at 4 °C overnight. 2% chromatin prior to immunoprecipitation was used as input. Chromatin-protein-antibody complex was captured by protein G magnetic beads, and chromatin was released by reversal of cross-links and purified using the SimpleChIP® Enzymatic Chromatin IP Kit (CST, 9002) according to the manufacturer’s instructions. DNA was quantified by qPCR with primers targeting predicted SMAD2/3/4 binding regions on GREM1 or SNAI1 promoters. DNA levels were normalized to the input, and the fold-change of enrichment was calculated over the control. ChIP–qPCR primers are listed in Supplementary Table 2."}, "HCT116 cells": {"test_system": "HCT116 cells", "experiment": "Subcutaneous transplantation of GREM1-CM-pretreated HCT116 cells in nude mice", "assay_type": "in vivo, human cells in nude mice", "details": "SB505124 10 mg/kg i.p. every other day", "method": "For cecum-to-liver metastasis model, 1 × 10^6 MC38-luc cells were resuspended in 50 µL of PBS and injected into the cecum of GD mice or control mice (Grem1-CreER^T2/Rosa-LSL-DTA mice) (n = 6 mice in each group); 5 × 10^6 HCT116-luc cells transduced with lentivirus carrying a pLV or pLV-GREM1 were injected into the cecum of NOG mice (n = 5 mice in each group). SB505124 was administered via intraperitoneal injection at a dose of 10 mg/kg once every other day. The metastases were examined every 5 days post injection using an IVIS Lumina Imaging System. Mice were euthanized between 2 and 6 weeks after injection. […] Mice were euthanized 4 weeks after injection. The tumor tissues were collected for further evaluation.\nFigure S8. SB505124 inhibits GREM1-CM-induced EMT and metastasis of CRC in vivo. […] D, RT–qPCR analysis of epithelial marker CDH1 and mesenchymal markers CTNNB1, SNAI1, ZEB1 in subcutaneous tumor tissues from the indicated treatment groups. n = 3 independent experiments. E-G, Representative IF images (E) and quantification (F, G) of E-CAD (green), SNAIL (red), and DAPI (blue) staining in tumors from the indicated groups. […] H, I, Representative IVIS images (H) and quantification (I) of NOG mice that were injected with HCT116-luc cells in the cecum wall and treated with either SB505124 or vehicle via abdominal injection. Liver metastases were imaged and quantified using the IVIS Lumina Imaging System (n = 5 mice per group). For B–D, F, G and I, data are presented as mean ± s.e.m. P values were calculated using one-way ANOVA with Bonferroni multiple-comparison test (B–D, F, and G) or two-tailed Student’s t-test (I)."}, "GREM1 promoter": {"test_system": "GREM1 promoter", "experiment": "ChIP–qPCR, SMAD2/3/4 binding to GREM1 promoter", "assay_type": "cell-based, human", "details": "SW480 cells, SB505124 10 µM, 24 h, n = 3 independent experiments", "method": "as §2"}, "SW480 cells": {"test_system": "SW480 cells", "experiment": "Scratch assay, SW480", "assay_type": "cell-based, human", "details": "SW480, scratch assay 48 h; n = 3 independent experiments", "method": "as §1\nCells were seeded into 6-well plates after centrifugation and digestion with 0.05% trypsin. When the cell density reached 90%, three vertical lines were scratched in each well with a 10 µL pipette tip and the floating cells were gently washed away with 1×PBS. Complete medium was added, and images of the scratch area were taken at 0 h. Three different fields of view were selected for each well. After photography, the medium was replaced with serum-free medium. Wound healing was documented at the same location after 24–48 h of incubation."}}, "note": "“Also recorded” adds a separate entry of the source."}
{"smiles": "Cc1cccc(-c2[nH]c(C(C)(C)C)nc2-c2ccc3c(c2)OCO3)n1", "note": "[SB505124]", "values": [{"measurement": "GREM1-CM-induced invasion, effect of inhibitor", "setting": "HCT116 and SW480 cells", "result": "abolished; also recorded: significantly reduced"}, {"measurement": "SMAD2/3/4 binding to SNAI1 promoter −787 site", "setting": "SNAI1 promoter", "result": "significantly decreased this binding"}, {"measurement": "E-CAD and SNAIL expression in subcutaneous tumors", "setting": "HCT116 cells; IF, n = 5 mice per group", "result": "restored E-CAD expression and suppressed SNAIL expression"}, {"measurement": "subcutaneous tumor progression and EMT", "setting": "HCT116 cells; nude mice, GREM1-CM-pretreated HCT116, n = 6 mice per group", "result": "suppressed tumor progression and EMT"}, {"measurement": "SMAD2/3/4 binding to GREM1 promoter −733 and −612 sites", "setting": "GREM1 promoter", "result": "significantly reduced this binding"}, {"measurement": "GREM1-CM-induced migration, effect of inhibitor", "setting": "SW480 cells", "result": "abolished; also recorded: suppressed"}]}
